pIC50, pKi: −log10 of the molar value. Active and inactive are the calls of the source. The calls are words filed in the database; no cut-off is given here.
Experiments:
[1] = molecular target: T1, 5-hydroxytryptamine receptor 1A (Homo sapiens, UniProt P08908); assay: Displacement of [3H]-8-OH-DPAT from human 5-HT1A receptor expressed in HEK293 cells; assay type: cell-based
T1 sequence (P08908 whole entry): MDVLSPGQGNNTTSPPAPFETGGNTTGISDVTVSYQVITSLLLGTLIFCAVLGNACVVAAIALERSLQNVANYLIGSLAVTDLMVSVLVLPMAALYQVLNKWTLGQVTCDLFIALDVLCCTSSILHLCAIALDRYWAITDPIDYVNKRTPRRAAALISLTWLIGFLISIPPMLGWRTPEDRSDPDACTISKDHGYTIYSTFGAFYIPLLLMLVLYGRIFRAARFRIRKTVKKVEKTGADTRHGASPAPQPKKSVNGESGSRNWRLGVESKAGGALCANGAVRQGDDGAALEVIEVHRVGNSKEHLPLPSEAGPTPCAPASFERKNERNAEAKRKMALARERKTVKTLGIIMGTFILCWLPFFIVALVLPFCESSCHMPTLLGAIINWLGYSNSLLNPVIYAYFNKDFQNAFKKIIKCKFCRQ

D(2) dopamine receptor = D(2) dopamine receptor (Homo sapiens, UniProt P14416); assay: Displacement of [3H]-Raclopride from human dopamine D2L receptor expressed in HEK293 cells; assay type: cell-based
D(2) dopamine receptor, sequence (P14416 whole entry): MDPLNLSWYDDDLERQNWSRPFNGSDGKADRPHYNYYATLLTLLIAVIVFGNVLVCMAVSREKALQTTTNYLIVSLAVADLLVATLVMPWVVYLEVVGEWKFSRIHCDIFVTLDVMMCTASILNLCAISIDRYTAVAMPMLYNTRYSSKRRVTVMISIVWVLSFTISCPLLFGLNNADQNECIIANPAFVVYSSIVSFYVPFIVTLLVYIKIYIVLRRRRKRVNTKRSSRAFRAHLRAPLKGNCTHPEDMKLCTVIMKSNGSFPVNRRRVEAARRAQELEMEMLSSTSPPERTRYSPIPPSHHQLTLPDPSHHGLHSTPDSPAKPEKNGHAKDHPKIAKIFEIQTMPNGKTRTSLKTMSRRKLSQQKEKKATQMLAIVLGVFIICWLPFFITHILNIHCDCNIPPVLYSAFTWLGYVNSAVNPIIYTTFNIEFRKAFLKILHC

[2] = molecular target: T2, 5-hydroxytryptamine receptor 7 (Homo sapiens, UniProt P34969); assay: Displacement of [3H]-5-CT from human 5-HT7 receptor expressed in HEK293 cells; assay type: cell-based
T2 sequence (P34969 whole entry): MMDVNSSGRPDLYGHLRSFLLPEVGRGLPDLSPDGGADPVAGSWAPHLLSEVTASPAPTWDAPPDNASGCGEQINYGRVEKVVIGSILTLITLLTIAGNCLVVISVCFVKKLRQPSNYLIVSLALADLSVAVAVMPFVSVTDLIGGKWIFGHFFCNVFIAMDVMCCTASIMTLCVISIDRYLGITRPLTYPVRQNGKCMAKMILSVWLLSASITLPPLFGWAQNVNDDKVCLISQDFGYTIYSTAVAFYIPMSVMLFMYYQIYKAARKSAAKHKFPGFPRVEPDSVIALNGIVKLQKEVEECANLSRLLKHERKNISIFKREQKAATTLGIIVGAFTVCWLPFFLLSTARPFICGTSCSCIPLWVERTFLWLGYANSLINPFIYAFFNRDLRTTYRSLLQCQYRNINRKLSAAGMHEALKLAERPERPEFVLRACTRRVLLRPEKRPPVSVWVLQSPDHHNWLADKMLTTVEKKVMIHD

Homo sapiens [3] = organism: Homo sapiens; assay: Selectivity ratio of Ki for human dopamine D2L receptor to Ki for human 5-HT7 receptor
Homo sapiens [4] = organism: Homo sapiens; assay: Selectivity ratio of Ki for human 5-HT1A receptor to Ki for human 5-HT7 receptor
[5] = molecular target: T2, 5-hydroxytryptamine receptor 7; assay: Agonist activity at human 5-HT7 receptor expressed in HEK293 cells assessed as increase in cAMP level at 10 uM after 15 mins by HTRF assay; assay type: functional, cell-based
[6] = molecular target: T2, 5-hydroxytryptamine receptor 7; assay type: functional, cell-based, HEK293
[7] = molecular target: T2, 5-hydroxytryptamine receptor 7; assay: Antagonist activity at human 5-HT7 receptor expressed in HEK293 cells assessed as inhibition of 5-CT-induced cAMP production at 10 uM preincubated for 15 mins followed by 5-CT addition measured after 15 mins by HTRF assay; assay type: functional, cell-based
Liver microsome [8] = assay: Drug level in recombinant human liver microsomes treated with 5-(4-fluorophenyl)-3-(2-hydroxy-3-(4-(2-methoxyphenyl)piperazin-1-yl)propyl)-5-methylimidazolidine-2,4-dione at 50 uM after 120 mins by UPLC-MS/MS analysis; assay type: ADME; settings: 2 h
Liver microsome [9] = assay: Retention time of the compound in recombinant human liver microsomes treated with 5-(4-fluorophenyl)-3-(2-hydroxy-3-(4-(2-methoxyphenyl)piperazin-1-yl)propyl)-5-methylimidazolidine-2,4-dione at 50 uM after 120 mins by UPLC-MS/MS analysis; assay type: ADME; settings: 2 h
CYP3A4 = CYP3A4 (Homo sapiens, UniProt P08684); assay: Inhibition of recombinant human CYP3A4 assessed as remaining activity at 25 uM by luminescence -based microplate reader assay; assay type: ADME; settings: read-out: Activity
CYP3A4, sequence (P08684 whole entry): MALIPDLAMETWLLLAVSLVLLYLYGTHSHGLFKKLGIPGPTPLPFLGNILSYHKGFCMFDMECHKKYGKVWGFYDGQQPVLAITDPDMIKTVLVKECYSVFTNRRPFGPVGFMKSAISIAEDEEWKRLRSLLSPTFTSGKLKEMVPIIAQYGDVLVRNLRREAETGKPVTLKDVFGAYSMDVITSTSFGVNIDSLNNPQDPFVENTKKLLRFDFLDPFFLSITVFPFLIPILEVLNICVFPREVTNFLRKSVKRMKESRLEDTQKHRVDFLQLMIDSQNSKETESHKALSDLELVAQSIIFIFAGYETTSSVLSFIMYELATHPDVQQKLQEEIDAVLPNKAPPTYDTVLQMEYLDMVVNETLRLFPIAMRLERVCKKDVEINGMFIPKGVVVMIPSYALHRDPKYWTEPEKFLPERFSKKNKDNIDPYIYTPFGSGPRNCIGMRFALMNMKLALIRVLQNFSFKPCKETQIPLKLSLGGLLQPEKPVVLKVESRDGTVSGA

| Structure (SMILES) | pKi [1] | pKi (D(2) dopamine receptor) | pKi [2] | Ratio Ki (Homo sapiens [3]) | Ratio Ki (Homo sapiens [4]) | Activity [5] | pIC50 [6] | inhibition [7] | Drug metabolism (Liver microsome [8]) | Retention_time (Liver microsome [9]) | activity at 25 µM (CYP3A4) |
| --- | --- | --- | --- | --- | --- | --- | --- | --- | --- | --- | --- |
| CCOc1ccccc1N1CCN(CC(O)CN2C(=O)NC(C)(c3ccc(F)cc3)C2=O)CC1 (centres undefined) | 7.01 | 6.90 | 8.00 | 13 | 10 | inactive | 7.09 | – | – | – | – |
| CC1(c2ccc(F)cc2)NC(=O)N(CC(O)CN2CCN(c3ccccc3Cl)CC2)C1=O (centres undefined) | 6.40 | 6.08 | 7.33 | 18 | 8 | inactive | – | 30% | – | – | – |
| CC1(c2ccc(F)cc2)NC(=O)N(CC(O)CN2CCN(c3cccc(Cl)c3Cl)CC2)C1=O (centres undefined) | 7.23 | 6.52 | 7.77 | 18 | 3 | inactive | 5.86 | – | – | – | – |
| Cc1ccc(N2CCN(CC(O)CN3C(=O)NC(C)(c4ccc(F)cc4)C3=O)CC2)cc1C (centres undefined) | 6.00 | 5.65 | 6.75 | 13 | 6 | inactive | – | 19% | – | – | – |
| CC1(c2ccc(F)cc2)NC(=O)N(CC(O)CN2CCN(c3ccccc3C#N)CC2)C1=O (centres undefined) | 6.50 | 6.03 | 7.85 | 67 | 23 | inactive | 6.46 | – | – | – | – |
| CC1(c2ccc(F)cc2)NC(=O)N(CC(O)CN2CCN(c3ccccc3)CC2)C1=O (centres undefined) | 5.56 | 5.54 | 6.65 | 13 | 12 | inactive | – | 18% | – | – | – |
| CC1(c2ccc(F)cc2)NC(=O)N(CC(O)CN2CCN(C(c3ccccc3)c3ccccc3)CC2)C1=O (centres undefined) | – | – | – | 3 | 71 | inactive | 5.74 | – | – | – | – |
| NCCc1c[nH]c2ccc(C(N)=O)cc12 | – | – | – | – | – | Active | – | – | – | – | – |
| CC1(c2ccc(F)cc2)NC(=O)N(CC(O)CN2CCN(c3ccccc3F)CC2)C1=O (centres undefined) | 5.78 | 5.77 | 6.63 | 7 | 7 | inactive | – | 6% | – | – | – |
| CC1(c2ccc(F)cc2)NC(=O)N(CC(O)CN2CCN(c3ccccc3O)CC2)C1=O (centres undefined) | – | – | – | – | – | – | – | – | metabolite_detected | 3.77 min | – |
| CC1(c2ccc(F)cc2)NC(=O)N(CC(O)CN2CCN(c3ccc(F)cc3F)CC2)C1=O (centres undefined) | 5.04 | 5.17 | 5.92 | 4 | 8 | inactive | – | 9% | – | – | – |
| CC1(c2ccc(F)cc2)NC(=O)N(CC(O)CN2CCN(c3ccc(Cl)c(Cl)c3)CC2)C1=O (centres undefined) | 6.09 | 5.70 | 6.85 | 14 | 6 | inactive | 4.62 | – | – | – | – |
| Cc1ccc(C)c(N2CCN(CC(O)CN3C(=O)NC(C)(c4ccc(F)cc4)C3=O)CC2)c1 (centres undefined) | 5.88 | 5.74 | 7.25 | 32 | 23 | inactive | 6.00 | – | – | – | – |
| COc1ccccc1N1CCN(CC(O)CN2C(=O)NC(C)(c3ccc(F)cc3)C2=O)CC1 (centres undefined) | – | – | – | – | – | – | – | – | – | – | 50% |
| CC1(c2ccc(F)cc2)NC(=O)N(CC(O)CN2CCN(c3ccc(Cl)cc3)CC2)C1=O (centres undefined) | 5.28 | 5.37 | 6.04 | 5 | 6 | inactive | – | 16% | – | – | – |
| COc1cccc(N2CCN(CC(O)CN3C(=O)NC(C)(c4ccc(F)cc4)C3=O)CC2)c1 (centres undefined) | 5.53 | 5.29 | 7.05 | 58 | 33 | inactive | 5.23 | – | – | – | – |
| CC1(c2ccc(F)cc2)NC(=O)N(CC(O)CN2CCN(c3ccc(F)cc3)CC2)C1=O (centres undefined) | 5.16 | 5.25 | 6.08 | 7 | 8 | inactive | – | 12% | – | – | – |

From ChEMBL document CHEMBL3769356, “Rational design in search for 5-phenylhydantoin selective 5-HT7R antagonists. Molecular modeling, synthesis and biological evaluation” (Eur J Med Chem, 2016)
